Measurements as given in ChEMBL document CHEMBL5506059, “Cyanomethylquinolones as a New Class of Potential Multitargeting Broad-Spectrum Antibacterial Agents” (J Med Chem, 2024).
Values after ≈ are worked out from the molar mass of the structure shown.

Key:
[1] = test system: Staphylococcus aureus; experiment: Antibacterial activity against Staphylococcus aureus ATCC 29213 assessed as inhibition of bacterial growth incubated for 24 hrs; format: functional
[2] = test system: Staphylococcus aureus; experiment: Antibacterial activity against methicillin resistant Staphylococcus aureus clinical isolate assessed as inhibition of bacterial growth incubated for 24 hrs; format: functional
[3] = test system: Staphylococcus aureus; experiment: Antibacterial activity against Staphylococcus aureus ATCC 12600 assessed as inhibition of bacterial growth incubated for 24 hrs; format: functional
[4] = test system: Streptococcus pyogenes; experiment: Antibacterial activity against Streptococcus pyogenes ATCC 19615 assessed as inhibition of bacterial growth incubated for 24 hrs; format: functional
[5] = test system: Enterococcus faecium; experiment: Antibacterial activity against Enterococcus faecium ATCC 19434 assessed as inhibition of bacterial growth incubated for 24 hrs; format: functional
[6] = test system: Staphylococcus aureus; experiment: Antibacterial activity against Staphylococcus aureus ATCC 6538 assessed as inhibition of bacterial growth incubated for 24 hrs; format: functional
[7] = test system: Enterococcus faecalis; experiment: Antibacterial activity against vancomycin-resistant Enterococcus faecalis clinical isolate p1-2007225053 assessed as inhibition of bacterial growth incubated for 24 hrs; format: functional
[8] = test system: Enterococcus faecalis; experiment: Antibacterial activity against vancomycin-resistant Enterococcus faecalis clinical isolate p1-2007226001 assessed as inhibition of bacterial growth incubated for 24 hrs; format: functional
[9] = test system: Staphylococcus aureus; experiment: Antibacterial activity against Staphylococcus aureus CMCC(B)26003 assessed as inhibition of bacterial growth incubated for 24 hrs; format: functional
[10] = test system: Pseudomonas aeruginosa; experiment: Antibacterial activity against Pseudomonas aeruginosa ATCC 27853 assessed as inhibition of bacterial growth incubated for 24 hrs; format: functional
[11] = test system: Escherichia coli; experiment: Antibacterial activity against Escherichia coli ATCC 25922 assessed as inhibition of bacterial growth incubated for 24 hrs; format: functional
[12] = test system: Pseudomonas aeruginosa; experiment: Antibacterial activity against Pseudomonas aeruginosa clinical isolate assessed as inhibition of bacterial growth incubated for 24 hrs; format: functional
[13] = test system: Staphylococcus epidermidis; experiment: Antibacterial activity against Staphylococcus epidermidis ATCC 12228 assessed as inhibition of bacterial growth incubated for 24 hrs; format: functional
[14] = test system: Staphylococcus aureus; experiment: Antibacterial activity against Staphylococcus aureus ATCC 25923 assessed as inhibition of bacterial growth incubated for 24 hrs; format: functional
[15] = test system: Klebsiella pneumoniae; experiment: Antibacterial activity against Klebsiella pneumoniae clinical isolate assessed as inhibition of bacterial growth incubated for 24 hrs; format: functional
[16] = test system: Acinetobacter baumannii; experiment: Antibacterial activity against Acinetobacter baumannii clinical isolate assessed as inhibition of bacterial growth incubated for 24 hrs; format: functional
[17] = test system: Erythrocyte; experiment: Hemolytic activity in human Red blood cells assessed as concentration required for 5% hemolysis measured after 1.5 hrs by absorbance based assay; format: toxicity, cell-based
[18] = test system: Staphylococcus aureus; experiment: Antibacterial activity against Staphylococcus aureus clinical isolate assessed as inhibition of bacterial growth incubated for 24 hrs; format: functional
[19] = test system: Enterococcus faecalis; experiment: Antibacterial activity against Enterococcus faecalis clinical isolate assessed as inhibition of bacterial growth incubated for 24 hrs; format: functional
[20] = test system: Streptococcus pneumoniae; experiment: Antibacterial activity against Streptococcus pneumoniae ATCC 6305 assessed as inhibition of bacterial growth incubated for 24 hrs; format: functional
[21] = test system: Escherichia coli; experiment: Antibacterial activity against Escherichia coli clinical isolate assessed as inhibition of bacterial growth incubated for 24 hrs; format: functional
[22] = test system: Staphylococcus aureus; experiment: Antibacterial activity against methicillin-resistant Staphylococcus aureus ATCC 43300 assessed as inhibition of bacterial growth incubated for 24 hrs; format: functional
[23] = test system: Staphylococcus aureus; experiment: Antibacterial activity against Staphylococcus aureus CMCC(B)26001 assessed as inhibition of bacterial growth incubated for 24 hrs; format: functional

Compound | MIC [1] | MIC [2] | MIC [3] | MIC [4] | MIC [5] | MIC [6] | MIC [7] | MIC [8] | MIC [9] | MIC [10] | MIC [11] | MIC [12] | MIC [13] | MIC [14] | MIC [15] | MIC [16] | HC5 [17] | MIC [18] | MIC [19] | MIC [21] | also measured
N#CCc1cc2c(cc1F)c(=O)c(C(=O)O)cn2Cc1ccc(F)cc1F | 0.5 µg/mL (≈ 1.34 µM) | 256 µg/mL (≈ 688 µM) | 64 µg/mL (≈ 172 µM) | 0.25 µg/mL (≈ 0.671 µM) | 128 µg/mL (≈ 344 µM) | 32 µg/mL (≈ 86 µM) | 64 µg/mL (≈ 172 µM) | 64 µg/mL (≈ 172 µM) | 2 µg/mL (≈ 5.37 µM) | 0.5 µg/mL (≈ 1.34 µM) | 0.25 µg/mL (≈ 0.671 µM) | 0.5 µg/mL (≈ 1.34 µM) | 64 µg/mL (≈ 172 µM) | 0.25 µg/mL (≈ 0.671 µM) | 8 µg/mL (≈ 21.5 µM) | 4 µg/mL (≈ 10.7 µM) | 60 µg/mL | 256 µg/mL (≈ 688 µM) | 256 µg/mL (≈ 688 µM) | 0.5 µg/mL (≈ 1.34 µM) | MIC [20]: 32 µg/mL (≈ 86 µM); MIC [22]: 128 µg/mL (≈ 344 µM); MIC [23]: 2 µg/mL (≈ 5.37 µM)
CCCCCCCCn1cc(C(=O)O)c(=O)c2cc(F)c(CC#N)cc21 | 256 µg/mL (≈ 714 µM) | 256 µg/mL (≈ 714 µM) | 32 µg/mL (≈ 89.3 µM) | 2 µg/mL (≈ 5.58 µM) | 128 µg/mL (≈ 357 µM) | 64 µg/mL (≈ 179 µM) | 256 µg/mL (≈ 714 µM) | 128 µg/mL (≈ 357 µM) | 2 µg/mL (≈ 5.58 µM) | 256 µg/mL (≈ 714 µM) | 256 µg/mL (≈ 714 µM) | 2 µg/mL (≈ 5.58 µM) | 128 µg/mL (≈ 357 µM) | 1 µg/mL (≈ 2.79 µM) | 256 µg/mL (≈ 714 µM) | 256 µg/mL (≈ 714 µM) | 258 µg/mL | 256 µg/mL (≈ 714 µM) | 256 µg/mL (≈ 714 µM) | 0.5 µg/mL (≈ 1.4 µM) | MIC [20]: 64 µg/mL (≈ 179 µM); MIC [22]: 64 µg/mL (≈ 179 µM); MIC [23]: 2 µg/mL (≈ 5.58 µM)
N#CCc1cc2c(cc1F)c(=O)c(C(=O)O)cn2Cc1cnc(Cl)s1 | 4 µg/mL (≈ 10.6 µM) | 1 µg/mL (≈ 2.65 µM) | – | – | – | – | – | – | – | 2 µg/mL (≈ 5.29 µM) | 1 µg/mL (≈ 2.65 µM) | 0.5 µg/mL (≈ 1.32 µM) | – | 8 µg/mL (≈ 21.2 µM) | 8 µg/mL (≈ 21.2 µM) | 16 µg/mL (≈ 42.4 µM) | – | 8 µg/mL (≈ 21.2 µM) | 16 µg/mL (≈ 42.4 µM) | 8 µg/mL (≈ 21.2 µM) | –
N#CCc1cc2c(cc1F)c(=O)c(C(=O)O)cn2Cc1ccc(Cl)cc1Cl | 2 µg/mL (≈ 4.94 µM) | 256 µg/mL (≈ 632 µM) | – | – | – | – | – | – | – | 32 µg/mL (≈ 79 µM) | 1 µg/mL (≈ 2.47 µM) | 0.5 µg/mL (≈ 1.23 µM) | – | 0.5 µg/mL (≈ 1.23 µM) | 16 µg/mL (≈ 39.5 µM) | 8 µg/mL (≈ 19.7 µM) | – | 256 µg/mL (≈ 632 µM) | 256 µg/mL (≈ 632 µM) | 1 µg/mL (≈ 2.47 µM) | –
CCn1cc(C(=O)O)c(=O)c2cc(F)c(CC#N)c(F)c21 | 1 µg/mL (≈ 3.42 µM) | 1 µg/mL (≈ 3.42 µM) | – | – | – | – | – | – | – | 4 µg/mL (≈ 13.7 µM) | 0.5 µg/mL (≈ 1.71 µM) | 1 µg/mL (≈ 3.42 µM) | – | 16 µg/mL (≈ 54.7 µM) | 16 µg/mL (≈ 54.7 µM) | 0.5 µg/mL (≈ 1.71 µM) | – | 0.25 µg/mL (≈ 0.855 µM) | 8 µg/mL (≈ 27.4 µM) | 4 µg/mL (≈ 13.7 µM) | –
